Read-outs that look alike come from different tables or passages of the source.
How the values were obtained:
[1] = system: Key Grass and Sedge Weeds as well as Grass Crops; assay: Post-emergent Test II herbicidal activity (Table 6); type: in vivo; details: post-emergence, 336 h; for pest or weed control at 70 g/ha: application rate 70 g ai/ha; for pest or weed control at 140 g/ha: application rate 140 g ai/ha
Outline: (§1)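 Compounds, dissolved in 97:3 acetone/DMSO and diluted into an aqueous carrier containing crop oil concentrate and Triton X-155, are applied over the top of young plants at 187 L/ha. Injury is scored visually at 14 d, 0% meaning no effect and 100% complete kill.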

[2] = system: Key Broadleaf Weed and Crop Species; assay: Post-emergent Test II herbicidal activity (Table 5); type: in vivo; details: post-emergence, 336 h, post-emergent, 14 days after application; for pest or weed control at 70 g/ha: 70 g ai/ha; for pest or weed control at 140 g/ha: 140 g ai/ha
Outline: as §1

[3] = Triticum aestivum, TRZSS (wheat), read-out: Visual Growth Reduction (%) 14 Days After Application, TRZSS
[4] = CYPES: yellow nutsedge (Cyperus esculentus), read-out: Visual Growth Reduction (%) 14 Days After Application, CYPES
[5] = DIGSA: crabgrass (Digitaria sanguinalis), read-out: Visual Growth Reduction (%) 14 Days After Application, DIGSA
[6] = ECHCG: barnyardgrass (Echinochloa crus-galli), read-out: Visual Growth Reduction (%) 14 Days After Application, ECHCG
[7] = ORYSA: rice (Oryza sativa), read-out: Visual Growth Reduction (%) 14 Days After Application, ORYSA
[8] = SETFA: giant foxtail (Setaria faberi), read-out: Visual Growth Reduction (%) 14 Days After Application, SETFA
[9] = SORVU: grain sorghum (Sorghum vulgare), read-out: Visual Growth Reduction (%) 14 Days After Application, SORVU
[10] = ZEAMX: maize, corn (Zea mays), read-out: Visual Growth Reduction (%) 14 Days After Application, ZEAMX
[11] = ABUTH: velvetleaf (Abutilon theophrasti), read-out: Visual Growth Reduction (%) 14 Days After Application ABUTH
[12] = AMARE: redroot pigweed (Amaranthus retroflexus), read-out: Visual Growth Reduction (%) 14 Days After Application AMARE
[13] = BRSNN: oilseed-rape, canola (Brassica napus), read-out: Visual Growth Reduction (%) 14 Days After Application BRSNN
[14] = CHEAL: lambsquarters (Chenopodium album), read-out: Visual Growth Reduction (%) 14 Days After Application CHEAL
[15] = EPHHL: wild poinsettia (Euphorbia heterophylla), read-out: Visual Growth Reduction (%) 14 Days After Application EPHHL
[16] = HELAN: sunflower (Helianthus annuus), read-out: Visual Growth Reduction (%) 14 Days After Application HELAN
[17] = VIOTR: wild pansy (Viola tricolor), read-out: Visual Growth Reduction (%) 14 Days After Application VIOTR
[18] = TRZSS (wheat, Triticum aestivum), read-out: Visual Growth Reduction (%) 14 Days After Application, TRZSS

Compound | pest or weed control at 70 g/ha [1, 4] [%] | pest or weed control at 140 g/ha [1, 4] [%] | pest or weed control at 70 g/ha [1, 5] [%] | pest or weed control at 140 g/ha [1, 5] [%] | pest or weed control at 70 g/ha [1, 6] [%] | pest or weed control at 140 g/ha [1, 6] [%] | pest or weed control at 70 g/ha [1, 7] [%] | pest or weed control at 140 g/ha [1, 7] [%] | pest or weed control at 70 g/ha [1, 8] [%] | pest or weed control at 140 g/ha [1, 8] [%] | pest or weed control at 70 g/ha [1, 9] [%] | pest or weed control at 140 g/ha [1, 9] [%] | pest or weed control at 70 g/ha [1, 10] [%] | pest or weed control at 140 g/ha [1, 10] [%] | melting point [°C] | pest or weed control at 70 g/ha [2, 11] [%] | pest or weed control at 140 g/ha [2, 11] [%] | pest or weed control at 70 g/ha [2, 12] [%] | pest or weed control at 140 g/ha [2, 12] [%] | pest or weed control at 70 g/ha [2, 13] [%] | other results
C=Cc1c(N)nc(-c2ccc(F)c(F)c2F)nc1C(=O)O [Compound 191, 6-Amino-2-(2,3,4-trifluorophenyl)-5-vinylpyrimidine-4-carboxylic acid] | 0 to 29 | 60 to 74 | 60 to 74 | 75 to 84 | 85 to 94 | 75 to 84 | 0 to 29 | 0 to 29 | 75 to 84 | 75 to 84 | 45 to 59 | 45 to 59 | 45 to 59 | 60 to 74 | 154 to 157 | 60 to 74 | 95 to 100 | 95 to 100 | 95 to 100 | 95 to 100 | pest or weed control at 70 g/ha [1, 3]: 0 to 29%; pest or weed control at 140 g/ha [1, 3]: 30 to 44%; pest or weed control at 140 g/ha [2, 13]: 95 to 100%; pest or weed control at 70 g/ha [2, 14]: 95 to 100%; pest or weed control at 140 g/ha [2, 14]: 95 to 100%; pest or weed control at 70 g/ha [2, 15]: 95 to 100%; pest or weed control at 140 g/ha [2, 15]: 95 to 100%; pest or weed control at 70 g/ha [2, 16]: 95 to 100%; pest or weed control at 140 g/ha [2, 16]: 95 to 100%; pest or weed control at 70 g/ha [2, 17]: 45 to 59%; pest or weed control at 140 g/ha [2, 17]: 45 to 59%
COC(=O)c1nc(-c2cc(F)c(C(F)F)cc2F)nc(N)c1OC [Compound 193] | 30 to 44 | 45 to 59 | 0 to 29 | 0 to 29 | 0 to 29 | 0 to 29 | 0 to 29 | 0 to 29 | 0 to 29 | 45 to 59 | 0 to 29 | 45 to 59 | 0 to 29 | 0 to 29 | 127.9 to 129.2 | 60 to 74 | 75 to 84 | 75 to 84 | 95 to 100 | 60 to 74 | pest or weed control at 70 g/ha [1, 18]: 0 to 29%; pest or weed control at 140 g/ha [1, 18]: 30 to 44%; pest or weed control at 140 g/ha [2, 13]: 60 to 74%; pest or weed control at 70 g/ha [2, 14]: 85 to 94%; pest or weed control at 140 g/ha [2, 14]: 95 to 100%; pest or weed control at 70 g/ha [2, 15]: 85 to 94%; pest or weed control at 140 g/ha [2, 15]: 95 to 100%; pest or weed control at 70 g/ha [2, 16]: 60 to 74%; pest or weed control at 140 g/ha [2, 16]: 75 to 84%; pest or weed control at 70 g/ha [2, 17]: 0 to 29%; pest or weed control at 140 g/ha [2, 17]: 30 to 44%
C=Cc1c(N)nc(-c2ccc(F)c(F)c2F)nc1C(=O)OC [Compound 197, Methyl 6-amino-2-(2,3,4-trifluorophenyl)-5-vinylpyrimidine-4-carboxylate] | 60 to 74 | 60 to 74 | 45 to 59 | 60 to 74 | 0 to 29 | 75 to 84 | 0 to 29 | 0 to 29 | 0 to 29 | 0 to 29 | 60 to 74 | 60 to 74 | 60 to 74 | 60 to 74 | 156 to 158 | 95 to 100 | 95 to 100 | 95 to 100 | 95 to 100 | 95 to 100 | pest or weed control at 70 g/ha [1, 3]: 0 to 29%; pest or weed control at 140 g/ha [1, 3]: 0 to 29%; pest or weed control at 140 g/ha [2, 13]: 85 to 94%; pest or weed control at 70 g/ha [2, 14]: 95 to 100%; pest or weed control at 140 g/ha [2, 14]: 95 to 100%; pest or weed control at 70 g/ha [2, 15]: 95 to 100%; pest or weed control at 140 g/ha [2, 15]: 95 to 100%; pest or weed control at 70 g/ha [2, 16]: 85 to 94%; pest or weed control at 140 g/ha [2, 16]: 85 to 94%; pest or weed control at 70 g/ha [2, 17]: 60 to 74%; pest or weed control at 140 g/ha [2, 17]: 75 to 84%
COC(=O)c1nc(-c2cc(F)c(C#N)cc2F)cc(N)c1Cl [Compound 202] | 85 to 94 | 85 to 94 | 30 to 44 | 60 to 74 | 60 to 74 | 95 to 100 | 0 to 29 | 0 to 29 | 60 to 74 | 60 to 74 | 60 to 74 | 85 to 94 | 30 to 44 | 45 to 59 | 209.7 to 211.9 | 95 to 100 | 95 to 100 | 95 to 100 | 95 to 100 | 75 to 84 | pest or weed control at 70 g/ha [1, 18]: 60 to 74%; pest or weed control at 140 g/ha [1, 18]: 75 to 84%; pest or weed control at 140 g/ha [2, 13]: 85 to 94%; pest or weed control at 70 g/ha [2, 14]: 95 to 100%; pest or weed control at 140 g/ha [2, 14]: 95 to 100%; pest or weed control at 70 g/ha [2, 15]: 95 to 100%; pest or weed control at 140 g/ha [2, 15]: 95 to 100%; pest or weed control at 70 g/ha [2, 16]: 95 to 100%; pest or weed control at 140 g/ha [2, 16]: 95 to 100%; pest or weed control at 70 g/ha [2, 17]: 60 to 74%; pest or weed control at 140 g/ha [2, 17]: 60 to 74%

Reference: patent US9113629B2, “4-amino-6-(4-substituted-phenyl)-picolinates and 6-amino-2-(4-substituted-phenyl)-pyrimidine-4-carboxylates and their use as herbicides” (DOW AGROSCIENCES LLC, priority 2013, dated 2015)
